Test results: patent US10376557B2, “Peptide fragments for inducing synthesis of extracellular matrix proteins” (HELIX BIOMEDIX, INC., priority 2006, dated 2019)
Ends that are not written are not given here.

Key:
Format in all cases: cell-based
Human dermal fibroblasts = test: SIRCOL collagen assay: soluble collagen released by dermal fibroblasts incubated with peptides; details: for Released collagen (μg/mL) 24 h / Released collagen (μg/mL) 48 h: peptide 50 μg/mL (per Table 5); for Collagen / Collagen (μg): * = may not be significant, detection limit 2.5 μg; for Collagen produced (μg/mL) 24 hrs / Collagen produced (μg/mL) 48 hrs: [Peptide] 50 μg/mL; for Significant release of collagen at 24 h and 48 h: 25 μg/mL considered significant
Procedure: Several sequences identified in Examples 1 and 2 were synthesized using standard peptide chemistry and assayed for the stimulation of collagen from dermal fibroblasts. The synthesized peptides were amidated at the C-terminus, which rendered the tetrapeptides less susceptible to protease degradation and increased their solubility compared to the free acid forms. Human dermal fibroblasts were incubated in 96-well plates at 37° C. and 5% CO2 for 24 and 48 hours in 150 μL complete cell culture media (Cascade Biologics, Portland, Oreg.; Cat. No. M-106-500), supplemented with Low Serum Growth Supplement (Cascade Biologics, Portland, Oreg.; Cat. No. […] Each well was seeded with 10,000 cells. Following the incubation, 100-μL medium samples were recovered from each well and assayed for collagen production
The assays were performed by Tebu-bio Laboratories (France) using the SIRCOL™ Collagen Assay Kit (Biocolor Assays, UK) following the manufacturer's protocol. The SIRCOL™ Collagen Assay is a quantitative dye-binding method designed for the analysis of soluble collagens released into culture medium by mammalian cells during in vitro culture. The collagen of the tested samples binds to the anionic SIRCOL™ dye. The collagen-dye complexes precipitate out of solution and are pelleted by centrifugation. The recovered collagen-dye pellet was dissolved in an alkaline solution prior to absorbance measurements. Duplicate measurements were taken at the 24 and 48 hour times from two separate samples. The four measurements for each sample were averaged. The absorbance of reagent blanks, collagen standards, and samples were measured at 560 nm. The reagent blank absorbance was subtracted from the absorbance from each sample at 24 and 48 hours.
Two separate data sets were used to generate two collagen standard calibration curves. The first calibration curve was generated for purposes of calculating the quantity of collagen in samples H6 (combination of SEQ ID NOs:1-4), […] (SEQ ID NOs:1-8, respectively) and H15 (combination of SEQ ID NOs:5-8). The second calibration curve was generated for calculating the quantity of collagen in samples H16 (SEQ ID NO:9), H21-23 (SEQ ID NOs:10-12, respectively), H25-26 (SEQ ID NOs:13-14, respectively), or H29-30 (SEQ ID NOs:15-16, respectively), H32 (SEQ ID NO:17), H33 (combination of SEQ ID NOs:9-12), H34 (combination of SEQ ID NOs:11-14), H35 (combination of SEQ ID NOs:13-16), H36 (combination of SEQ ID NOs:1, 6, 5, 8), H37 (SEQ ID NO: 17) and H38 (SEQ ID NO:8) from the absorbance measurements was created by plotting the Abs560nm of the known collagen standards versus the respective concentrations of the collagen standards (in micrograms) each time a series of assays were performed. With respect to each data set, the same calibration curve was used for samples taken at the 24 and 48 hour times (Tables 2A and 2B). Accordingly, different standard curves were prepared immediately prior to performing each series of assays.
A linear regression was performed from plotting the Abs560nm values versus concentrations of the respective collagen standards using MICROSOFT EXCEL™. […] As the results were identical, only the 24-hour time period was used for the second series calibration curves. The formula of the line obtained on assay date 1 and assay date 2 of the second series of samples was y=0.0178x and y=0.0162x, respectively. The peptide LL-37 (SEQ ID NO:18) was used as a positive control as it has been widely reported to have an impact upon wound healing in man (Heilborn et al., The Cathelicidin Anti-Microbial Peptide LL-37 Is Involved In The Re-Epithelialization Of Human Skin Wounds And Is Lacking In Chronic Ulcer Epithelium, J. Invest. Dermato. 120:379-89 (2003). The assay detection limit defined by the manufacturer is 2.5 μg. […]

[1] = test system: human skin epithelial cells (CRL-2592); test: In vitro scratch wound closure of skin epithelial cell monolayer; details: for W-size (wound size) 0 hr: prior to peptide treatment; for W-size (wound size) 6 hr / % closure 6 hr / W-size (wound size) 10 hr / % closure 10 hr: peptide 20 to 40 μg/ml; for % closure 6 hr: PBS controls 19.40%, 19.20%; for % closure 10 hr: PBS controls 41.70%, 42.30%; for wound closure compared to PBS alone (in words): epithelial cell monolayer
Procedure: Wound healing experiments were performed on monolayers of human skin epithelial cells (CRL-2592) plated onto 12-well plates. Cells were serum-starved for 24 hours before experimentation. Confluent monolayers of CRL-2592 were wounded using a P200 (200-μL) pipette tip. The wounds were washed and picture-documented prior to peptide treatment. Peptides were added to a final concentration from 20 to 40 μg/ml. Cells were kept in an incubator at 37° C., 5% CO2, and 92% humidity, except when images were being captured for a short period at room temperature. Wound closure was followed at 6-hour and 10-hour time points. PBS-treated wounds were used as negative controls for comparison purposes.

[2] = test system: human skin fibroblast monolayer; test: Wound closure in skin fibroblast monolayer (data not shown)
Source text: In vitro monolayer wound closure is a result of cell migration, which is important in many biological processes such as embryogenesis, angiogenesis, inflammatory reactions and wound repair. These processes are thought to be regulated by interactions with other cells, cytokines and ECM proteins.

[3] = check mark = yes, peptide 50 μg/mL
[4] = 24 hours, peptide 50 μg/mL, second series
[5] = 48 hours, peptide 50 μg/mL, second series

Substance	Released collagen (μg/mL) 24 h (Human dermal fibroblasts) [µg/mL]	Collagen produced (μg/mL) 24 hrs (Human dermal fibroblasts) [µg/mL]	Released collagen (μg/mL) 48 h (Human dermal fibroblasts) [µg/mL]	Collagen produced (μg/mL) 48 hrs (Human dermal fibroblasts) [µg/mL]	Decrease in collagen release at 48 h v. 24 h (Human dermal fibroblasts; [3])	W-size (wound size) 0 hr [1] [arbitrary]	W-size (wound size) 6 hr [1] [arbitrary]	% closure 6 hr [1] [%]	W-size (wound size) 10 hr [1] [arbitrary]	% closure 10 hr [1] [%]	wound closure compared to PBS alone (in words) [1]	Average (A560 nm) (Human dermal fibroblasts; [4])	Average minus blank (A560 nm) (Human dermal fibroblasts; [4])	Collagen (Human dermal fibroblasts; [4]) [µg]	Average (A560 nm) (Human dermal fibroblasts; [5])	Average minus blank (A560 nm) (Human dermal fibroblasts; [5])	Collagen (Human dermal fibroblasts; [5]) [µg]	Significant release of collagen at 24 h and 48 h (Human dermal fibroblasts; [3])	Collagen (μg) (Human dermal fibroblasts; [4])	Collagen (μg) (Human dermal fibroblasts; [5])	further results
GEPG (Synthetic Peptide H11)	45	45	21	21	✓	48	39	19	30	37.50	does not enhance wound closure or epithelial cell migration to any great extent										Average (A560 nm) (Human dermal fibroblasts; 24 hours, peptide 50 μg/mL): 0.14; Average minus blank (A560 nm) (Human dermal fibroblasts; 24 hours, peptide 50 μg/mL): 0.06; Collagen (Human dermal fibroblasts; 24 hours, peptide 50 μg/mL, 100 μL medium sample): 4.5 µg; Average (A560 nm) (Human dermal fibroblasts; 48 hours, peptide 50 μg/mL): 0.15; Average minus blank (A560 nm) (Human dermal fibroblasts; 48 hours, peptide 50 μg/mL): 0.03; Collagen (μg) (Human dermal fibroblasts; 48 hours, peptide 50 μg/mL, 100 μL medium sample): 2.1* μg
PGPP (Synthetic Peptide H26)	29	29	35	35		25	12	52	2.75	89	significantly induces wound closure	0.13	0.05	2.9	0.12	0.06	3.5	✓			wound closure in fibroblast monolayer (in words) [2]: does not induce wound closure
PKGP (PKGP-NH2) [H21]	25	25	29	29								0.12	0.04	2.5	0.11	0.05	2.9	✓			
PMGP (PMGP-NH2) [H25]	13	13	7	7	✓							0.10	0.02		0.07	0.01			1.3* μg	0.7* μg	
PQGP (PQGP-NH2) [H29]	4	4	19	19								0.09	0.01		0.09	0.03			0.4* μg	1.9* μg	Increase in collagen release at 48 h v. 24 h (Human dermal fibroblasts; [3]): ✓
